Patent publication US4528393A, “Derivatives having expectorant activity, the procedure for their preparation and the pharmaceutical compositions which contain them” (Magis Farmaceutici S.R.L., priority 1983, dated 1985)

How the values were obtained:
[1] = Acute toxicity in the rat (DL50, Litchfield and Wilcoxon method); conditions: in vivo
Description: (§1) where R is as defined above, in the presence of an alkaline carbonate and of a catalyst, to obtain the corresponding formula (I) compound, as defined above, which, optionally, is salified. The new formula (I) compounds and their pharmaceutically acceptable salts, which form the object of this invention, have expectorant characteristics which are very useful for therapeutic applications. […] The peak level in the blood is reached 20-40 minutes after oral administration. This determines higher concentrations of active principle. With dogs, the half-life of the new derivatives in the blood is from 25-30 hours. It is also to be underlined that the new compounds are stable in both the stomach and the intestinal tract, hydrolizing after being absorbed. The complete reliability of the new compounds was determined by evaluating their acute toxicity. Acute toxicity was studies in the mouse, rat and guinea pig, comparing with ambroxol hydrochloride. The DL50 values were calculated by following the Litchfield and Wilcoxon method (Pharm. Exp. Therap. 1949, 96,99).

[2] = Acute toxicity in the guinea pig (DL50, Litchfield and Wilcoxon method); conditions: in vivo
Description: as §1

mouse = experiment: Acute toxicity in the mouse (DL50, Litchfield and Wilcoxon method); format: in vivo; conditions: os
Description: as §1

[3] = as above; format: in vivo; conditions: in vivo
Description: as §1

SMILES | LD50 ([1]; ip) | LD50 ([1]; po, os) | LD50 ([2]; ip) | LD50 ([2]; po, os) | DL50 (mouse) | LD50 ([3]; ip) | LD50 ([3]; iv) | LD50 ([3]; po, os)
Nc1c(Br)cc(Br)cc1CN[C@H]1CC[C@H](O)CC1 [Ambroxol Hydrochlorate, N-(2-amino-3,5-dibromobenzyl)-trans-4-amino-cyclohexanol, reference compound] | 380 mg/kg | 13400 mg/kg | 280 mg/kg | 1180 mg/kg | 2750 mg/kg | 268 mg/kg | 138 mg/kg | 
COc1ccccc1OCC(=O)O[C@H]1CC[C@H](NCc2cc(Br)cc(Br)c2N)CC1 [E/6001, N-(2-amino-3,5-dibromobenzyl)-trans-4-amino-1-(guaiacolglycolyl)-cyclohexane] | 532 mg/kg | 18700 mg/kg | 390 mg/kg | 1650 mg/kg |  | 375 mg/kg | 194 mg/kg | 3850 mg/kg
COc1cc(C)ccc1OCC(=O)O[C@H]1CC[C@H](NCc2cc(Br)cc(Br)c2N)CC1 [E/6002] | 550 mg/kg | 19600 mg/kg | 400 mg/kg | 1700 mg/kg |  | 390 mg/kg | 201 mg/kg | 4000 mg/kg
Cc1cccc(OCC(=O)O[C@H]2CC[C@H](NCc3cc(Br)cc(Br)c3N)CC2)c1 [E/6003, N-(2-amino-3,5-dibromobenzyl)-trans-4-amino-1-(m-cresolglycolyl)cyclohexane] | 510 mg/kg | 18000 mg/kg | 380 mg/kg | 1600 mg/kg |  | 360 mg/kg | 187 mg/kg | 3700 mg/kg
Cc1ccccc1OCC(=O)O[C@H]1CC[C@H](NCc2cc(Br)cc(Br)c2N)CC1 [E/6004] | 500 mg/kg | 18000 mg/kg | 375 mg/kg | 1610 mg/kg |  | 365 mg/kg | 187 mg/kg | 3700 mg/kg
Cc1ccc(OCC(=O)O[C@H]2CC[C@H](NCc3cc(Br)cc(Br)c3N)CC2)cc1 [E/6005] | 500 mg/kg | 17800 mg/kg | 380 mg/kg | 1600 mg/kg |  | 360 mg/kg | 180 mg/kg | 3700 mg/kg
Cc1ccc(C(C)C)c(OCC(=O)O[C@H]2CC[C@H](NCc3cc(Br)cc(Br)c3N)CC2)c1 [E/6006, N-(2-amino-3,5-dibromobenzyl)-trans-4-amino-1-(thymolglycolyl)cyclohexane] | 540 mg/kg | 19000 mg/kg | 400 mg/kg | 1680 mg/kg |  | 380 mg/kg | 197 mg/kg | 3900 mg/kg
Cc1ccc(C(C)C)cc1OCC(=O)O[C@H]1CC[C@H](NCc2cc(Br)cc(Br)c2N)CC1 [E/6007, N-(2-amino-3,5-dibromobenzyl)-trans-4-amino-1-(carvacrolglycolyl)cyclohexane] | 530 mg/kg | 18500 mg/kg | 410 mg/kg | 1700 mg/kg |  | 390 mg/kg | 190 mg/kg | 3900 mg/kg
